From patent US20110217309A1, “BIOLOGICAL MARKERS PREDICTIVE OF ANTI-CANCER RESPONSE TO INSULIN-LIKE GROWTH FACTOR-1 RECEPTOR KINASE INHIBITORS” (priority 2010, published 2011)

Columns and labels:
[1] = tested on: BxPC3 tumors; assay: Tumor xenograft study; conditions: treatment in vivo for 10-14 days
[2] = tested on: MDAH-2774 cells; assay: Cell Titer Glo proliferation assay; type: cell-based, human; conditions: MDAH-2774, 72 hours, KRAS mutant
Experimental: (§1) Cell Lines and Culture. Human cancer cell lines, were obtained from American Type Culture Collection (ATCC, Manassas, Va.), or the following additional indicated sources, and cultured in media as described. […] Cells were maintained at 37° C. in an incubator under an atmosphere containing 5% CO2. The cells were routinely screened for the presence of mycoplasma (MycoAlert, Cambrex Bio Science, Baltimore, Md.). For growth inhibition assays, cells were plated and allowed to proliferate for 24 hours. […] Cell viability was assayed using the Cell Titer-Glo reagent (Promega Corp., Madison, Wis.).
(§2) Proliferation Assay. […] The basis of the assay is a luminescent quantitation of ATP present in a cell culture plate well. In essence, the greater the number of viable cells in the well, the greater the level of ATP present. The assay utilizes a substrate that binds ATP to produce a luminescent signal, which can be read on a luminometer. Unless otherwise noted, the manufacturer's instructions were followed exactly. Briefly, on Day 1, cells were plated in 120 μl of 10% serum-containing growth media at a density of 4000 cells/well in a white polystyrene 96 well assay plate. […] After 72 h incubation with the inhibitor, the cells were assayed. Results were calculated as a fraction of the DMSO controlled cells.

[3] = tested on: OVCAR5 cells; assay: Cell Titer Glo proliferation assay; type: cell-based, human; conditions: OVCAR5, 72 hours, KRAS mutant
Experimental: as §1, §2

[4] = tested on: MDAH-2774 ovarian tumor cells; assay: Caspase 3/7 Glo apoptosis assay; type: cell-based, human; conditions: with 10 nM pactitaxel
Experimental: Measurement of apoptosis: Induction of apoptosis as measured by increased Caspase 3/7 activity was determined using the Caspase 3/7 Glo assay (Promega Corporation, Madison, Wis.). Cell lines were seeded at a density of 3000 cells per well in a 96-well plate. 24 hours after plating, cells were dosed with compounds. The signal for Caspase 3/7 Glo was determined 24 hours after dosing. The caspase 3/7 activity was normalized to cell number per well, using a parallel plate treated with Cell Titer Glo (Promega Corporation, Madison, Wis.). Signal for each well was normalized using the following formula: Caspase 3/7 Glo luminescence units/Cell Titer Glo fraction of DMSO control. All graphs were generated using PRISM® software (Graphpad Software, San Diego, Calif.).

[5] = tested on: broad panel (n=116) of additional RTKs and other protein kinases; conditions: at 1 μM; cited from earlier work
[6] = tested on: H295R tumors; assay: Tumor xenograft study; conditions: treatment in vivo for 10-14 days
[7] = tested on: OVCAR-4, SKOV-3, OVCAR-3, OVCAR-8, CaOV3-5, and IGROV-1; assay: Cell Titer Glo proliferation assay, K-RAS wild-type OvCa lines; type: cell-based, human; conditions: other six OvCa cell lines of the panel, WT KRAS, 72 hours
Text: KRAS mutation status, as reported by the Sanger Wellcome Trust, is noted. Results shown are typical of three or more independent experiments. Grey symbols indicate data for K-RAS mutant (mt) cell lines OVCAR-5 and MDAH2774. Black symbols indicate data for K-RAS wild-type (wt) cell lines OVCAR-4, SKOV-3, OVCAR-3, OVCAR-8, CaOV3-5, and IGROV-1. Cell Lines and Culture. Human cancer cell lines, were obtained from American Type Culture Collection (ATCC, Manassas, Va.), or the following additional indicated sources, and cultured in media as described. […] The basis of the assay is a luminescent quantitation of ATP present in a cell culture plate well. […] The assay utilizes a substrate that binds ATP to produce a luminescent signal, which can be read on a luminometer. […] Results were calculated as a fraction of the DMSO controlled cells.

[8] = tested on: H460 tumors; assay: Tumor xenograft study; conditions: treatment in vivo for 10-14 days

C[C@]1(O)C[C@@H](c2nc(-c3ccc4ccc(-c5ccccc5)nc4c3)c3c(N)nccn32)C1 [OSI-906, cis-3-[8-amino-1-(2-phenyl-quinolin-7-yl)-imidazo[1,5-a]pyrazin-3-yl]-1-methyl-cyclobutanol]
% TGI (tumor growth inhibition) [1]: 56% | EC50, proliferation [2]: sub-micromolar | EC50, proliferation [3]: sub-micromolar | induction of apoptosis [4]: enhances the induction of apoptosis | inhibition of additional kinases [5]: < 50% | % TGI (tumor growth inhibition) [6]: 85% | sensitivity of proliferation [7]: relatively insensitive | % TGI (tumor growth inhibition) [8]: < 30%
